Common to all, as to assay: NCI tumour cell line growth inhibition, 48 h
Assay [1] deals with A549.
The test system of assay [2] is ACHN.
The subject of assay [3] is CCRF-CEM.
In assay [4] the test system is HL-60.
Assay [5] deals with HOP-92.
The subject of assay [6] is MCF7.
For assay [7], the system named is NCI-H23.
The subject of assay [8] is NCI-H460.
The test system of assay [9] is NCI/ADR-RES.
Assay [10] has as its system OVCAR-3.
Assay [11] deals with OVCAR-5.
In assay [12] the test system is SF-539.
Assay [13] deals with SK-OV-3.
For assay [14], the system named is SN12C.
In assay [15] the test system is SNB-19.
For assay [16], the system named is SW-620.
Assay [17] has as its system T47D.
Assay [18] concerns KM12.
For assay [19], the system named is SR.

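Exposure lasted 48 hours, with cells grown in 96-well plates and compounds tested at five concentrations. GI50 is the concentration that inhibits growth by half.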 Calls of active or inactive are those of the source. No stated cut-off is given here; in the data, active = GI50 up to about 1.1 µM and inactive = higher.

In the case of `COc1cc(/C=C2\Cc3cc(OC)c(OC)cc3C2=O)cc(OC)c1`, the GI50 in assay [1] is > 96.6 µM (inactive); in [2], > 58.2 µM (inactive); in assay [3], > 100 µM (inactive); in assay [4], 3.18 µM (inactive); in [5], 22.8 µM (inactive); in [6], > 86.5 µM (inactive). The GI50 in [7] is 17.6 µM (inactive); in assay [8] it was 15.1 µM (inactive); in assay [9] it was 0.904 µM (active); in assay [10] it was > 92.3 µM (inactive); in [11], > 100 µM (inactive); in assay [12], 13.1 µM (inactive). The GI50 in assay [13] was 17 µM (inactive); in assay [14], > 74.1 µM (inactive); in assay [15], 25.8 µM (inactive); in [16] it was > 100 µM (inactive); in assay [17], > 100 µM (inactive).

In the case of `COc1ccc(Nc2nc3c([nH]2)c(=O)n(C)c(=O)n3C)cc1`, the GI50 in assay [1], in [3], in [4], in [5], in [18] and in assay [6] was > 10 µM (inactive) throughout. Also, the GI50 in [7], in assay [13], in assay [14], in [19], in assay [16] and in [17] was > 10 µM (inactive) throughout.

For `CC(=O)Oc1cc2c(n(C)c1=O)-c1ccccc1C2`, the GI50 is 63.7 µM (inactive) in assay [1]; 32.5 µM (inactive) in [2]; 34.2 µM (inactive) in [3]; 46.7 µM (inactive) in assay [5]; > 100 µM (inactive) in assay [18]; 75.5 µM (inactive) in assay [7]. Also, the GI50 in assay [8] was 43.8 µM (inactive); in assay [9] it was 23.2 µM (inactive); in [10], 33.3 µM (inactive); in assay [11], > 100 µM (inactive); in assay [13], > 100 µM (inactive); in assay [14], > 100 µM (inactive). For the same molecule, the results for the GI50 in [15], in [16] and in assay [17] were > 100 µM (inactive), 24.4 µM (inactive) and > 100 µM (inactive), respectively.

On to `O=C(CCCC(=O)N1CC(CCl)c2ccc([N+](=O)[O-])cc21)N1CC(CCl)c2ccc([N+](=O)[O-])cc21` (centres undefined), for which the GI50 in [1] was 33.3 µM (inactive); in assay [2], > 100 µM (inactive); in assay [3], > 100 µM (inactive); in assay [4], > 100 µM (inactive); in [5], > 100 µM (inactive); in assay [6], > 100 µM (inactive). The GI50 was > 100 µM (inactive) in assay [7]; 38.4 µM (inactive) in [8]; > 100 µM (inactive) in assay [10]; > 100 µM (inactive) in assay [11]; > 100 µM (inactive) in [12]; > 100 µM (inactive) in assay [13]. In addition, the GI50 in assay [14] was > 100 µM (inactive); in [15] it was > 100 µM (inactive); in assay [19], 9.1 µM (inactive); in assay [16], > 100 µM (inactive); in assay [17] it was > 100 µM (inactive).

On to `Fc1cc(F)c(F)c(S)c1F`, for which the GI50 in assay [1] is 36.6 µM (inactive); in assay [2] it was > 100 µM (inactive); in assay [3], 29.5 µM (inactive); in assay [4], 30.1 µM (inactive); in assay [5] it was > 100 µM (inactive); in [18], > 100 µM (inactive). For the same molecule, the GI50 in [6] was > 100 µM (inactive); in assay [7], > 100 µM (inactive); in assay [8], > 100 µM (inactive); in assay [9], 19.4 µM (inactive); in [10] it was > 100 µM (inactive); in assay [11], > 100 µM (inactive). Moreover, the GI50 in assay [12] is > 100 µM (inactive); in assay [13], 65.6 µM (inactive); in assay [14] it was 20.4 µM (inactive); in assay [15], > 100 µM (inactive); in assay [16] it was 59.7 µM (inactive); in assay [17], > 100 µM (inactive).

Consider `COc1ccc(/C=N/n2c(Cc3ccc(Cl)cc3)n[nH]c2=O)c(OC)c1`, for which the GI50 is 27.4 µM (inactive) in assay [1]; 44.7 µM (inactive) in assay [2]; > 100 µM (inactive) in assay [3]; 29.2 µM (inactive) in assay [5]; 27.3 µM (inactive) in assay [18]; 33.6 µM (inactive) in assay [6]. For the same molecule, the GI50 was 29.4 µM (inactive) in assay [7]; > 100 µM (inactive) in assay [8]; 12.3 µM (inactive) in [9]; 35.2 µM (inactive) in assay [10]; 38.3 µM (inactive) in assay [11]; > 100 µM (inactive) in assay [12]. Further, the GI50 was 26.1 µM (inactive) in assay [13]; > 10 µM (inactive) in assay [14]; 20.7 µM (inactive) in [15]; > 100 µM (inactive) in assay [16]; 69 µM (inactive) in assay [17].

With `Clc1ccc(/N=C2\c3ccccc3CN2c2ccc(Cl)cc2)cc1`, the GI50 in [1] is 29.9 µM (inactive); in assay [2], 0.668 µM (active); in assay [3], < 0.01 µM (active); in [5] it was 39.9 µM (inactive); in [18], 77.8 µM (inactive); in assay [6], 5.2 µM (inactive). Besides, the GI50 in assay [7] is 89.5 µM (inactive); in assay [8], 62.8 µM (inactive); in assay [9], > 100 µM (inactive); in assay [10], 52.7 µM (inactive); in [11], > 100 µM (inactive); in assay [12] it was 30.2 µM (inactive). The GI50 was > 100 µM (inactive) in assay [13]; > 100 µM (inactive) in [14]; > 100 µM (inactive) in assay [15]; > 100 µM (inactive) in [16]; 0.219 µM (active) in assay [17].

Regarding `O=C(N/N=C(COc1cccc(Cl)c1)\N=C\c1cccnc1)c1ccncc1`, the GI50 in [1] is > 100 µM (inactive); in assay [2], 91.2 µM (inactive); in [3] it was > 100 µM (inactive); in assay [4], > 100 µM (inactive); in assay [5] it was 24.9 µM (inactive); in assay [18], > 100 µM (inactive). Further, the GI50 in [6], in assay [7], in assay [8], in assay [9], in [10] and in assay [11] was > 100 µM (inactive) throughout. The GI50 in [12] was > 100 µM (inactive); in [13] it was > 100 µM (inactive); in assay [14], > 100 µM (inactive); in assay [15], > 100 µM (inactive); in assay [16], > 100 µM (inactive); in assay [17], 32.5 µM (inactive).

Turning to `COC(=O)CSc1[nH]c2nc(C)nc(Nc3ccccc3)c2c1C#N`, the GI50 is > 10 µM (inactive) in assay [1]; > 10 µM (inactive) in assay [3]; > 10 µM (inactive) in assay [4]; 9.42 µM (inactive) in assay [5]; > 10 µM (inactive) in [18]; > 10 µM (inactive) in [6]. Besides, the GI50 in assay [7], in assay [13], in [14], in assay [19], in assay [16] and in assay [17] was > 10 µM (inactive) in each case.

Regarding `COc1ccc(CC(O)CN2CCOCC2)cc1` (centres undefined), the GI50 in assay [1], in [2], in [3], in assay [4], in [5] and in assay [18] was > 100 µM (inactive) in each case. Also, the GI50 in assay [7], in [8], in [9], in assay [10], in [11] and in [14] was > 100 µM (inactive) in each case. The GI50 in assay [15], in assay [19], in assay [16] and in assay [17] was > 100 µM (inactive) in each case.

As to `C=CCNC(NCC=C)=C(C(Cl)=C(Cl)Cl)[N+](=O)[O-]`, the GI50 in assay [1] was > 100 µM (inactive); in assay [2], 31.8 µM (inactive); in assay [3], 26.5 µM (inactive); in assay [18], 65.5 µM (inactive); in [6], 35.9 µM (inactive); in assay [7], 34.1 µM (inactive). In addition, the GI50 in assay [8] was > 100 µM (inactive); in assay [9], 43.2 µM (inactive); in assay [10], 26.2 µM (inactive); in assay [11], > 100 µM (inactive); in [12] it was 21.3 µM (inactive); in assay [13], > 100 µM (inactive). Also, the GI50 was 59.2 µM (inactive) in assay [14], > 100 µM (inactive) in [15], 22.9 µM (inactive) in [16] and 30.5 µM (inactive) in assay [17].

For the molecule `COc1cc(-c2oc3c(OC)c(O)c(OC)c(O)c3c(=O)c2OC)cc(O)c1OC`, the GI50 is 46.9 µM (inactive) in assay [1]; 50.6 µM (inactive) in assay [2]; 28.9 µM (inactive) in [3]; 24.8 µM (inactive) in assay [4]; 39.4 µM (inactive) in [5]; 14.3 µM (inactive) in assay [18]. Further, the GI50 is 29.6 µM (inactive) in [6]; 22.6 µM (inactive) in [7]; 17.6 µM (inactive) in [9]; 24.7 µM (inactive) in [10]; 56.6 µM (inactive) in assay [11]; 20.7 µM (inactive) in [12]. Also, the GI50 was 16.4 µM (inactive) in [13]; 34.4 µM (inactive) in [14]; 65.9 µM (inactive) in [15]; 44.3 µM (inactive) in [16]; 32.8 µM (inactive) in assay [17].

Regarding `O=c1c(C(c2ccc([N+](=O)[O-])cc2)c2c(O)oc3ccccc3c2=O)c(O)oc2ccccc12`, the GI50 in assay [3], in [4], in assay [5], in assay [18], in assay [7] and in [8] was > 100 µM (inactive) throughout. Further, the GI50 in [9], in assay [10], in [14], in assay [15], in assay [16] and in assay [17] was > 100 µM (inactive) throughout.

Source of the values: ChEMBL document CHEMBL1201862, “PubChem BioAssay data set” (2004).
